The NIST ThermoML archive (doi:10.1016/j.jct.2018.08.035)

Assay: xn = mol fraction of the nth substance listed
Details: 100 kPa, Liquid, Vibrating tube method

CCC(O)CC [3-pentanol] + C[N+](=O)[O-]
Details	mass density [kg/m3]
290.86 K, x1 = 0.414	977.244
290.86 K, x1 = 0.615	890.972
290.95 K, x1 = 0.246	1006.81
290.95 K, x1 = 0.266	998.292
290.95 K, x1 = 0.275	994.793
290.95 K, x1 = 0.3	988.13
290.95 K, x1 = 0.325	987.695
290.95 K, x1 = 0.338	986.437
290.95 K, x1 = 0.363	982.374
290.95 K, x1 = 0.382	980.189
290.95 K, x1 = 0.407	976.76
290.95 K, x1 = 0.414	976.042
290.95 K, x1 = 0.486	956.644
290.95 K, x1 = 0.488	952.742
290.95 K, x1 = 0.546	927.124
290.95 K, x1 = 0.573	908.776
290.95 K, x1 = 0.587	897.749
290.95 K, x1 = 0.615	890.865
291.05 K, x1 = 0.246	1006.69
291.05 K, x1 = 0.275	994.663
291.05 K, x1 = 0.382	978.765
291.05 K, x1 = 0.407	975.346
291.05 K, x1 = 0.414	974.647
291.05 K, x1 = 0.486	954.019
291.05 K, x1 = 0.488	945.483
291.05 K, x1 = 0.573	903.111
291.06 K, x1 = 0.266	998.167
291.06 K, x1 = 0.3	986.306
291.06 K, x1 = 0.325	985.699
291.06 K, x1 = 0.338	984.897
291.06 K, x1 = 0.363	981.518
291.06 K, x1 = 0.546	924.902
291.06 K, x1 = 0.587	897.593
291.06 K, x1 = 0.615	890.758
291.15 K, x1 = 0.246	1006.56
291.15 K, x1 = 0.266	998.042
291.15 K, x1 = 0.275	994.538
291.15 K, x1 = 0.3	985.201
291.15 K, x1 = 0.325	983.513
291.15 K, x1 = 0.338	982.822
291.15 K, x1 = 0.382	977.024
291.15 K, x1 = 0.407	973.664
291.15 K, x1 = 0.414	973.001
291.15 K, x1 = 0.486	951.113
291.15 K, x1 = 0.488	947.64
291.15 K, x1 = 0.573	901.117
291.15 K, x1 = 0.615	890.652
291.15 K, x1 = 0.629	887.189
291.16 K, x1 = 0.363	980.295
291.16 K, x1 = 0.546	921.069
291.16 K, x1 = 0.587	897.497
291.25 K, x1 = 0.246	1006.44
291.25 K, x1 = 0.266	997.918
291.25 K, x1 = 0.275	994.413
291.25 K, x1 = 0.3	985.014
291.25 K, x1 = 0.325	980.203
291.25 K, x1 = 0.338	980.22
291.25 K, x1 = 0.382	974.837
291.25 K, x1 = 0.407	971.578
291.25 K, x1 = 0.414	970.955
291.25 K, x1 = 0.486	947.303
291.25 K, x1 = 0.488	944.104
291.25 K, x1 = 0.573	901.031
291.25 K, x1 = 0.587	897.388
291.25 K, x1 = 0.615	890.547
291.26 K, x1 = 0.363	978.023
291.26 K, x1 = 0.546	917.045
291.35 K, x1 = 0.246	1006.32
291.35 K, x1 = 0.275	994.289
291.35 K, x1 = 0.382	972.169
291.35 K, x1 = 0.407	969.156
291.35 K, x1 = 0.414	968.504
291.35 K, x1 = 0.486	943.014
291.35 K, x1 = 0.488	939.641
291.35 K, x1 = 0.573	900.922
291.36 K, x1 = 0.266	997.796
291.36 K, x1 = 0.3	984.888
291.36 K, x1 = 0.325	976.768
